Data published in patent US10434181B2, “Oligomer-containing benzamide-based compounds” (Nektar Therapeutics, priority 2012, dated 2019).
“And” between values parts separate entries of the source, which are not always exact repeats. Identical values can stand only once. Like-named read-outs stand apart in the source and are kept apart here.

What was measured:
[1] = target: T1, CYP2D6 (Homo sapiens, UniProt P10635); conditions: cited from earlier work
[2] = target: T2, 5HT4B receptors (serotonin 4B receptors) (Homo sapiens, UniProt Q13639); assay: Competition binding assay (serotonin 4B receptors), [3H]GR113808; conditions: for Fold-change Relative to Parent: IC50 relative to metoclopramide, 5HT4B binding; for IC50: [3H]GR113808 competition, HEK 293 membranes expressing 5HT4B
T2 construct: expressed in transfected cells

[3] = target: T3, 5HT3A receptors (serotonin 3A receptors) (Homo sapiens, UniProt P46098); assay: Competition binding assay (serotonin 3A receptors), [3H]GR65630; conditions: for Fold-change Relative to Parent: IC50 relative to metoclopramide, 5HT3A binding; for IC50: [3H]GR65630 competition, HEK 293 membranes expressing 5HT3A, read-out: IC50
T3 construct: expressed in transfected cells
T3 sequence (P46098 24-478): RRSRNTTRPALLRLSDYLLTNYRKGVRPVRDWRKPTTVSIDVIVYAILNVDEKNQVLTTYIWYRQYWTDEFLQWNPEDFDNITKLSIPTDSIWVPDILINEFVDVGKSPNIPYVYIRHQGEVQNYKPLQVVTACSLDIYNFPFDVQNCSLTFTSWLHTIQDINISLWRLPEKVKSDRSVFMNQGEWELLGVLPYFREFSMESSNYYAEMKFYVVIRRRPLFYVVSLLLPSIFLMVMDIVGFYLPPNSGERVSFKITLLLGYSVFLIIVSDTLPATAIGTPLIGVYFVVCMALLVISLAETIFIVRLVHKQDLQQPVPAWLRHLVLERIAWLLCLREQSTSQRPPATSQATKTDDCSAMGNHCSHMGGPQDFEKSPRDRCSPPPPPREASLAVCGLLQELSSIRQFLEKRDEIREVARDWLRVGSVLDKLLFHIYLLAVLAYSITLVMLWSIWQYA
Experimental: [^3H] […] To start the assay, 1 uL of compound was added into 96-well v-bottom plates, followed by the addition of 50 uL of diluted membrane preparation, then finally diluted [^3H] […] The assay mixture was incubated for 60 minutes at room temperature with shaking. Following incubation, bound [^3H] […] Filter plates were air dried for two minutes, and then 50 uL of MicroScint-20 was added into each well. Radioactivity counts were quantified using a Top Count plate reader (Perkin Elmer). Data was analyzed using one-site binding competition non-linear regression curve fitting on GraphPad Prism.

[4] = target: T4, dopamine 2S receptor (Homo sapiens, UniProt P14416); assay: β-Arrestin functional assay (dopamine), antagonist mode; assay type: cell-based; conditions: for Fold-change Relative to Parent: IC50 relative to metoclopramide, D2S β-arrestin; for IC50: β-arrestin interaction, CHO-K1 cells expressing D2S, dopamine at EC80 (400 nM)
T4 construct: host or cells: CHO-K1 (PathHunter eXpress β-arrestin cells)

[5] = Chemical stability in potassium phosphate buffer; assay type: physicochemical; conditions: 100 mM potassium phosphate buffer, pH 7.4 at 37° C. for up to 30 minutes
Experimental: FIG. 5B is a plot of the results of a chemical stability study of test articles in a 100 mM potassium phosphate buffer, pH 7.4 at 37° C. for up to thirty minutes.

[6] = target: T1, CYP2D6; assay: Metabolic stability in human recombinant CYP2D6 enzyme; assay type: in vitro ADME; parameters: purchased Xenotech, LLC; conditions: 1 μM, 100 pmol/mL CYP2D6, up to 30 min, 37° C.
[7] = target: dopamine 2L receptors (Homo sapiens, UniProt P14416); assay: Competition binding assay (dopamine 2L receptors), [3H]methylspiperone; parameters: expressed in transfected cells; conditions: for Fold-change Relative to Parent: IC50 relative to metoclopramide, D2L binding
Experimental: [^3H] Methylspiperone was diluted in assay buffer to a final concentration of 0.4 nM. To start the assay, 1 uL of compound was added into 96-well v-bottom plates, followed by the addition of 50 uL of diluted membrane preparation, then finally diluted [^3H] Methylspiperone was added. The assay mixture was incubated for 60 minutes at room temperature with shaking. Following incubation, bound [^3H] methylspiperone on 5% PEI soaked GF/B filter plates using a Filtermate Harvester (Perkin Elmer) were then washed four times with ice cold wash buffer (50 mM Tris-HCl, pH 7.5). Filter plates were air dried for two minutes, and then 50 uL of MicroScint-20 was added into each well. Radioactivity counts were quantified using a Top Count plate reader (Perkin Elmer). Data was analyzed using one-site binding competition non-linear regression curve fitting on GraphPad Prism.

[8] = target: T2, 5HT4B receptors (serotonin 4B receptors); conditions: value in brackets after the IC50; cited from earlier work
[9] = [3H]methylspiperone competition, HEK 293 membranes expressing D2L, read-out: IC50
[10] = preliminary run that was not quality controlled, read-out: IC50, preliminary run

dopamine 2L receptors, sequence (P14416 whole entry): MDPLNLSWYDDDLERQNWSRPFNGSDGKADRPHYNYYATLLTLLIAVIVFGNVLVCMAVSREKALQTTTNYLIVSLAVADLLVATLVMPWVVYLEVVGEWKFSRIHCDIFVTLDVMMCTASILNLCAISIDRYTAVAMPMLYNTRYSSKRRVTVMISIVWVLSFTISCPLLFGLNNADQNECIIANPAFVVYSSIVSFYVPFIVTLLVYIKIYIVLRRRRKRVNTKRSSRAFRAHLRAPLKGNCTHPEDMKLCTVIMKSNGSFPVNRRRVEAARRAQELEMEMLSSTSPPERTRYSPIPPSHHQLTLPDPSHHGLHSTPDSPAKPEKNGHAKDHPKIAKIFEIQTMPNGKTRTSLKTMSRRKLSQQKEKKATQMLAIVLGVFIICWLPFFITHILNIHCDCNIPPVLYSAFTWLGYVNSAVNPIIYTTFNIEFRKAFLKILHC
T4 sequence (P14416 1-414 isoform P14416-2): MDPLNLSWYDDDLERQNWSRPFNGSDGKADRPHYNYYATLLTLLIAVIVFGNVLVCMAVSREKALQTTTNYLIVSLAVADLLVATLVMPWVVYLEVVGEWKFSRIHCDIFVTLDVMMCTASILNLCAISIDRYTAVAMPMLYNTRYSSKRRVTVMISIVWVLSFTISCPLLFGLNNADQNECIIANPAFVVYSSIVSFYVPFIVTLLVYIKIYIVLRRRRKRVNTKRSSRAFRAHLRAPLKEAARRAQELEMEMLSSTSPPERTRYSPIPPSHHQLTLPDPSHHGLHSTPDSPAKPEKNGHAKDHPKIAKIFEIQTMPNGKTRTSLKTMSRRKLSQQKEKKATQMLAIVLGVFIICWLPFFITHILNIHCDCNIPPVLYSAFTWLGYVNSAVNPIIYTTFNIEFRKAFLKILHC
T2 sequence (Q13639 whole entry): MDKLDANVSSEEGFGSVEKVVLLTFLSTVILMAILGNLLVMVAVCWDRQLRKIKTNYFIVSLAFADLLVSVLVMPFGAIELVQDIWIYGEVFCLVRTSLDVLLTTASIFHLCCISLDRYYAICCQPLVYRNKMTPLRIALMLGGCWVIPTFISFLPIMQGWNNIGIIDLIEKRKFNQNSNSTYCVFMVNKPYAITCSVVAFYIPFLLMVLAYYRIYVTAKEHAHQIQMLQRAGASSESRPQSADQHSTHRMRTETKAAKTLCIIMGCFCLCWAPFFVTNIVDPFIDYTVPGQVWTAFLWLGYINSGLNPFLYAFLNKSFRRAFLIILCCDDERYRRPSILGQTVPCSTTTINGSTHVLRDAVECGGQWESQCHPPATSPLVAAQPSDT
T1 sequence (P10635 whole entry): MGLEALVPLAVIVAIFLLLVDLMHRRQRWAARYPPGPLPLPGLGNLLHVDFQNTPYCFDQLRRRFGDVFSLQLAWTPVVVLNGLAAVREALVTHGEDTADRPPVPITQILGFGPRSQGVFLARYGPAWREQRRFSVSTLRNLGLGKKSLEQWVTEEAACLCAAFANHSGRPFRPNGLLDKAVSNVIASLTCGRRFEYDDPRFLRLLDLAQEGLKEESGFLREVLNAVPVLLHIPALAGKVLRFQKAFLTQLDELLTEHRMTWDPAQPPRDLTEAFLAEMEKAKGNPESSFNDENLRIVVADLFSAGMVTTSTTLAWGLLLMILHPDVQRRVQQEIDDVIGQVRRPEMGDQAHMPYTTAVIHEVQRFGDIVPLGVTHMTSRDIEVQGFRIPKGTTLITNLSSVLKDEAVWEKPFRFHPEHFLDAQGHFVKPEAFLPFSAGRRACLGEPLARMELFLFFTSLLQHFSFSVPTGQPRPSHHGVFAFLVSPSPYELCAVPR

SMILES	time-dependent inhibition of CYP2D6 (literature / known) [1]	Fold-change Relative to Parent [2]	IC50 [2]	Fold-change Relative to Parent [3]	IC50 [3]	Fold-change Relative to Parent [4]	IC50 [4]	chemical stability [5]	metabolism by human recombinant CYP2D6 enzyme [6]	Fold-change Relative to Parent [7]	IC50 [7, 9]	IC50 [7, 10]	pKi [8]
Fc1ccc([C@@H]2CCNC[C@H]2COc2ccc3c(c2)OCO3)cc1 [paroxetine]	time-dependent inhibitor of CYP2D6												
CCN(CCNC(=O)c1cc(Cl)c(N)cc1OC)CCOCCOCCOCCOCCOCCOC [mPEG6-N-Metoclopramide]		3.8	57.8 µM	129	885 µM	52.05	4.27 µM and 4.28 µM	chemically stable	to a lesser degree than metoclopramide	92.1	7.75 µM		
CCN(CCNC(=O)c1cc(Cl)c(N)cc1OC)CCOCCOCCOC [mPEG3-N-Metoclopramide]		2.1	31.8 µM	23	160 µM	25	2.05 µM and 2.06 µM	chemically stable	to a lesser degree than metoclopramide	41	3.45 µM	4.65 µM and 13.1 µM	
CCN(CCNC(=O)c1cc(Cl)c(N)cc1OC)CCOCCOCCOCCOCCOC [mPEG5-N-Metoclopramide]		3.8	58.1 µM	156	1070 µM	44.1	3.62 µM	chemically stable	to a lesser degree than metoclopramide	98.5	8.29 µM	15.1 µM	
CN1[C@@H]2CC[C@H]1C[C@@H](OC(=O)c1c[nH]c3ccccc13)C2 [Tropisetron]													8.5-8.8
